PubChem BioAssay (NCI)
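Briefly, cells in 96-well plates were exposed to five compound concentrations for 48 h, and endpoints were estimated by linear interpolation. GI50 is the concentration that inhibits growth by half. At the TGI there is no net growth.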

How the values were obtained:
Experiment in all cases: NCI-60 cell line screen, 48 h
[1] = test system: DU-145 prostate
[2] = test system: RPMI-8226 leukemia
[3] = test system: SK-MEL-2 melanoma
[4] = test system: CCRF-CEM leukemia
[5] = test system: SF-295 CNS
[6] = test system: MDA-MB-435
[7] = test system: A549 NSCLC
[8] = test system: IGROV1 ovarian
[9] = test system: NCI-H226 lung
[10] = test system: BT-549 breast
[11] = test system: NCI-H23 lung
[12] = test system: SF-268 CNS
[13] = test system: 786-0 renal
[14] = test system: OVCAR-3 ovarian
[15] = test system: NCI-H460 lung
[16] = test system: EKVX NSCLC
[17] = test system: SR leukemia
[18] = test system: U251 CNS
[19] = test system: NCI-H522 lung
[20] = test system: MDA-MB-231 breast
[21] = test system: UO-31 renal
[22] = test system: HCC-2998 colon
[23] = test system: HS 578T breast
[24] = test system: SN12C renal
[25] = test system: RXF 393 renal
[26] = test system: SNB-75 CNS
[27] = test system: A498 renal
[28] = test system: MALME-3M melanoma
[29] = test system: OVCAR-4 ovarian
[30] = test system: KM12 colon
[31] = test system: ACHN renal
[32] = test system: SW-620 colon
[33] = test system: K-562 leukemia
[34] = test system: HT29 colon
[35] = test system: OVCAR-8 ovarian
[36] = test system: T-47D breast
[37] = test system: HOP-62 NSCLC
[38] = test system: HCT-15 colon
[39] = test system: MDA-MB-468 breast
[40] = test system: PC-3 prostate
[41] = test system: SK-MEL-28 melanoma
[42] = test system: SK-OV-3 ovarian
[43] = test system: UACC-62 melanoma
[44] = test system: HL-60(TB) leukemia
[45] = test system: LOX IMVI melanoma
[46] = test system: SK-MEL-5 melanoma
[47] = test system: NCI/ADR-RES ovarian
[48] = test system: MCF7 breast
[49] = test system: CAKI-1 renal
[50] = test system: M14 melanoma
[51] = test system: HOP-92 NSCLC
[52] = test system: COLO 205 colon
[53] = test system: OVCAR-5 ovarian
[54] = test system: MOLT-4 leukemia
[55] = test system: SNB-19 CNS
[56] = test system: HCT-116 colon
[57] = test system: TK-10 renal
[58] = test system: UACC-257 melanoma
[59] = test system: SF-539 CNS

**Q.** What does the source list for `COc1ccc(Cc2nn(CC(=O)N/N=C/c3ccc(F)cc3)c(=O)c3c(C)noc23)cc1`?
**A.** GI50 [1]: 5.87 µM; TGI [1]: 18.8 µM; GI50 [2]: 9.01 µM; TGI [2]: > 100 µM; GI50 [3]: 12.1 µM; TGI [3]: 29.5 µM; GI50 [4]: 9.65 µM; TGI [4]: > 100 µM; GI50 [5]: 2.07 µM; TGI [5]: 4.86 µM; GI50 [6]: 9.52 µM; TGI [6]: 31.3 µM; GI50 [7]: 3.02 µM; TGI [7]: 10.1 µM; GI50 [8]: 7.58 µM; TGI [8]: 22.8 µM; GI50 [9]: 1.8 µM; TGI [9]: 4.61 µM; GI50 [10]: 12.2 µM; TGI [10]: 35.7 µM; GI50 [11]: 6.72 µM; TGI [11]: 20.9 µM; GI50 [12]: 5.81 µM; TGI [12]: 36.9 µM; GI50 [13]: 2.12 µM; TGI [13]: 4.63 µM; GI50 [14]: 3.44 µM; TGI [14]: 11.2 µM; GI50 [15]: 3.27 µM; TGI [15]: 11.3 µM; GI50 [16]: 4.39 µM; TGI [16]: 21.4 µM; GI50 [17]: 16.1 µM; TGI [17]: > 100 µM; GI50 [18]: 2.65 µM; TGI [18]: 8.07 µM; GI50 [19]: 10.4 µM; TGI [19]: 31.2 µM; GI50 [20]: 5.66 µM; TGI [20]: 19.5 µM; GI50 [21]: 1.79 µM; TGI [21]: 3.84 µM; GI50 [22]: 5.46 µM; TGI [22]: 19.7 µM; GI50 [23]: 3.19 µM; TGI [23]: 15.1 µM; GI50 [24]: 2.36 µM; TGI [24]: 6.08 µM; GI50 [25]: 2.42 µM; TGI [25]: 6.47 µM; GI50 [26]: 2 µM; TGI [26]: 4.49 µM; GI50 [27]: 1.83 µM; TGI [27]: 3.73 µM; GI50 [28]: 3.63 µM; TGI [28]: 15 µM; GI50 [29]: 1.8 µM; TGI [29]: 3.47 µM; GI50 [30]: 26.5 µM; TGI [30]: > 100 µM; GI50 [31]: 1.95 µM; TGI [31]: 3.83 µM; GI50 [32]: 5.59 µM; TGI [32]: 22.9 µM; GI50 [33]: 31.4 µM; TGI [33]: > 100 µM; GI50 [34]: 10.9 µM; TGI [34]: 25.5 µM; GI50 [35]: 6.96 µM; TGI [35]: 60.6 µM; GI50 [36]: 2.24 µM; TGI [36]: 5.88 µM; GI50 [37]: 1.93 µM; TGI [37]: 4.04 µM; GI50 [38]: 9.27 µM; TGI [38]: 89.3 µM; GI50 [39]: 3.87 µM; TGI [39]: 17.7 µM; GI50 [40]: 5.43 µM; TGI [40]: 23.4 µM; GI50 [41]: 6.9 µM; TGI [41]: 21.8 µM; GI50 [42]: 1.99 µM; TGI [42]: 3.97 µM; GI50 [43]: 8.63 µM; TGI [43]: 25.1 µM; GI50 [44]: 68.8 µM; TGI [44]: > 100 µM; GI50 [45]: 4.65 µM; TGI [45]: 22 µM; GI50 [46]: 12.8 µM; TGI [46]: 33.4 µM; GI50 [47]: 4.03 µM; TGI [47]: 17.2 µM; GI50 [48]: 8.44 µM; TGI [48]: 35.1 µM; GI50 [49]: 2.02 µM; TGI [49]: 4.62 µM; GI50 [50]: 8.67 µM; TGI [50]: 38 µM; GI50 [51]: 2.34 µM; TGI [51]: 6.97 µM; GI50 [52]: 8.3 µM; TGI [52]: 35.2 µM; GI50 [53]: 7.18 µM; TGI [53]: 25.1 µM; GI50 [54]: 22.6 µM; TGI [54]: > 100 µM; GI50 [55]: 4.48 µM; TGI [55]: 20.4 µM; GI50 [56]: 2.47 µM; TGI [56]: 6.77 µM; GI50 [57]: 2.4 µM; TGI [57]: 6.39 µM; GI50 [58]: 6.33 µM; TGI [58]: 29.1 µM; GI50 [59]: 10.5 µM; TGI [59]: 22.8 µM
